Reference: US20230085307A1, “PYRIDAZINONE COMPOUND AND HERBICIDE” (NISSAN CHEMICAL CORPORATION, priority 2019, published 2023)

Tests used:
late watergrass = assay: Test Example 2: herbicidal activity, application during weed generation under submerged conditions (Table 17, symbol A); type: in vivo, late watergrass (Echinochloa oryzicola); settings: application during weed generation, submerged conditions
Procedure, shortened: (§1)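 Herbicide emulsion, diluted with water to the chosen amount, is applied onto 4 cm floodwater over alluvial soil where the weeds were co-sown and raised at 25–30° C. Application timing: 1–2 leaves. Assessment: three weeks afterwards.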

Japanese bulrush = assay: Test Example 2: herbicidal activity, application during weed generation under submerged conditions (Table 17, symbol B); type: in vivo, Japanese bulrush (Schoenoplectus juncoides); settings: application during weed generation, submerged conditions
Procedure, shortened: as §1

oval-leafed pondweed = assay: Test Example 2: herbicidal activity, application during weed generation under submerged conditions (Table 17, symbol C); type: in vivo, oval-leafed pondweed (Monochoria vaginalis); settings: application during weed generation, submerged conditions
Procedure: [Test Example 2] Herbicidal Activity Test by Application during Weed Generation under Submerged Conditions After alluvial soil was placed into 1/10000 are of Wagner pot, water was poured and mixed to form a submerged condition having a water depth of 4 cm. Seeds of late watergrass, Japanese bulrush, and oval-leafed pondweed were sowed in a mixed manner in the aforementioned pot, and the pot was placed in a greenhouse at 25° C. to 30° C. for growth of the plants. When late watergrass, Japanese bulrush, and oval-leafed pondweed were grown to one leaf stage to two leaf stage, the emulsion agent of the compound of the present invention prepared according to Formulation Example 2 was diluted with water so as to achieve a predetermined herbicide amount, and the diluted emulsion agent was applied to the surface of the water. Three weeks after the herbicide application, the effect of the herbicide on each plant was evaluated according to the criteria of Test Example 1.

barnyard grass [1] = assay: Test Example 3: herbicidal effect by foliage application, Wagner pot (Table 18, symbol H); type: in vivo, barnyard grass (Echinochloa crus-galli)
Procedure, shortened: (§2)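 Plants were sown in alluvial soil held under 0.1–0.5 cm standing water and grown 14 days in a greenhouse at 25–30 °C. An emulsifiable formulation, water-diluted to the set dose, was then sprayed onto the foliage, and effects were scored three weeks later using previously defined criteria.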

Chinese sprangletop = assay: Test Example 3: herbicidal effect by foliage application, Wagner pot (Table 18, symbol D); type: in vivo, chinese sprangletop (Leptochloa chinensis)
Procedure, shortened: as §2

rice flat sedge = assay: Test Example 3: herbicidal effect by foliage application, Wagner pot (Table 18, symbol E); type: in vivo, rice flat sedge (Cyperus iria)
Procedure, shortened: as §2

southern crabgrass = assay: Test Example 5: herbicidal effect by foliage application, plastic box (Table 20, symbol F); type: in vivo, southern crabgrass (Digitaria ciliaris); settings: for F: southern crabgrass, herbicidal effect grade: foliage application, three weeks after application
Procedure, shortened: (§3)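 Foliar spray test: emulsion formulation diluted in water to a set application rate, sprayed onto 14-day-old plants raised in diluvial soil at 25° C to 30° C under glass. Both herbicidal effect and crop effect rated visually three weeks later.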

green foxtail = assay: Test Example 5: herbicidal effect by foliage application, plastic box (Table 20, symbol G); type: in vivo, green foxtail (Setaria viridis); settings: for G: green foxtail, herbicidal effect grade: foliage application, three weeks after application
Procedure, shortened: as §3

barnyard grass [2] = assay: Test Example 5: herbicidal effect by foliage application, plastic box (Table 20, symbol H); type: in vivo, barnyard grass (Echinochloa crus-galli); settings: for H: barnyard grass, herbicidal effect grade: foliage application, three weeks after application
Procedure, shortened: as §3

wild oat = assay: Test Example 5: herbicidal effect by foliage application, plastic box (Table 20, symbol I); type: in vivo, wild oat (Avena fatua); settings: for I: wild oat, herbicidal effect grade: foliage application, three weeks after application
Procedure, shortened: as §3

blackgrass = assay: Test Example 5: herbicidal effect by foliage application, plastic box (Table 20, symbol J); type: in vivo, blackgrass (Alopecurus myosuroides); settings: for J: blackgrass, herbicidal effect grade: foliage application, three weeks after application
Procedure, shortened: as §3

Italian ryegrass = assay: Test Example 5: herbicidal effect by foliage application, plastic box (Table 20, symbol K); type: in vivo, Italian ryegrass (Lolium multiflorum); settings: for K: Italian ryegrass, herbicidal effect grade: foliage application, three weeks after application
Procedure, shortened: as §3

windgrass = assay: Test Example 5: herbicidal effect by foliage application, plastic box (Table 20, symbol L); type: in vivo, windgrass (Apera spica-venti); settings: for L: windgrass, herbicidal effect grade: foliage application, three weeks after application
Procedure, shortened: as §3

velvetleaf = assay: Test Example 5: herbicidal effect by foliage application, plastic box (Table 20, symbol M); type: in vivo, velvetleaf (Abutilon theophrasti); settings: for M: velvetleaf, herbicidal effect grade: foliage application, three weeks after application
Procedure, shortened: as §3

redroot pigweed = assay: Test Example 5: herbicidal effect by foliage application, plastic box (Table 20, symbol N); type: in vivo, redroot pigweed (Amaranthus retroflexus); settings: for N: redroot pigweed, herbicidal effect grade: foliage application, three weeks after application
Procedure, shortened: as §3

lambsquarters = assay: Test Example 5: herbicidal effect by foliage application, plastic box (Table 20, symbol O); type: in vivo, lambsquarters (Chenopodium album); settings: for O: lambsquarters, herbicidal effect grade: foliage application, three weeks after application
Procedure, shortened: as §3

chickweed = assay: Test Example 5: herbicidal effect by foliage application, plastic box (Table 20, symbol P); type: in vivo, common chickweed (Stellaria media); settings: for P: chickweed, herbicidal effect grade: foliage application, three weeks after application
Procedure, shortened: as §3

persian speedwell = assay: Test Example 5: herbicidal effect by foliage application, plastic box (Table 20, symbol R); type: in vivo, Persian speedwell (Veronica persica); settings: for R: persian speedwell, herbicidal effect grade: foliage application, three weeks after application
Procedure, shortened: as §3

[3] = amount of applied herbicide 285 g/ha
[4] = amount of applied herbicide 320 g/ha
[5] = 320 g/ha, foliage application after 14-day growth, evaluated three weeks after application

CCOC(=O)OC(C)Oc1c(C)nn(C)c(=O)c1-c1c(-c2ccccc2OC)sc2cc(F)ccc12 (stereo not drawn) [3-029]
herbicidal effect rating, A: late watergrass (late watergrass; AAH 285 g/ha): 0 (Herbicidal rate of 5% or less (almost no effect))
herbicidal effect rating, B: Japanese bulrush (Japanese bulrush; AAH 285 g/ha): 3 (Herbicidal rate of 40% or more and less than 70%)
herbicidal effect rating, C: oval-leafed pondweed (oval-leafed pondweed; AAH 285 g/ha): 1 (Herbicidal rate of 5% or more and less than 20%)
herbicidal effect on H: barnyard grass (barnyard grass [1]; [3]): 5 (Herbicidal rate of 90% or more (almost completely withered))
herbicidal effect on D: Chinese sprangletop (Chinese sprangletop; [3]): 3 (Herbicidal rate of 40% or more and less than 70%)
herbicidal effect on E: rice flat sedge (rice flat sedge; [3]): 5 (Herbicidal rate of 90% or more (almost completely withered))
F: southern crabgrass, herbicidal effect grade (southern crabgrass; 285 g/ha): 3 (Herbicidal rate of 40% or more and less than 70%)
G: green foxtail, herbicidal effect grade (green foxtail; 285 g/ha): 5 (Herbicidal rate of 90% or more (almost completely withered))
H: barnyard grass, herbicidal effect grade (barnyard grass [2]; 285 g/ha): 4 (Herbicidal rate of 70% or more and less than 90%)
I: wild oat, herbicidal effect grade (wild oat; 285 g/ha): 1 (Herbicidal rate of 5% or more and less than 20%)
J: blackgrass, herbicidal effect grade (blackgrass; 285 g/ha): 4 (Herbicidal rate of 70% or more and less than 90%)
K: Italian ryegrass, herbicidal effect grade (Italian ryegrass; 285 g/ha): 3 (Herbicidal rate of 40% or more and less than 70%)
L: windgrass, herbicidal effect grade (windgrass; 285 g/ha): 4 (Herbicidal rate of 70% or more and less than 90%)
M: velvetleaf, herbicidal effect grade (velvetleaf; 285 g/ha): 5 (Herbicidal rate of 90% or more (almost completely withered))
N: redroot pigweed, herbicidal effect grade (redroot pigweed; 285 g/ha): 5 (Herbicidal rate of 90% or more (almost completely withered))
O: lambsquarters, herbicidal effect grade (lambsquarters; 285 g/ha): 3 (Herbicidal rate of 40% or more and less than 70%)
P: chickweed, herbicidal effect grade (chickweed; 285 g/ha): 4 (Herbicidal rate of 70% or more and less than 90%)
R: persian speedwell, herbicidal effect grade (persian speedwell; 285 g/ha): 0 (Herbicidal rate of 5% or less (almost no effect))

CCCC(=O)Oc1c(C)nn(C)c(=O)c1-c1c(-c2ccc(Cl)cc2)sc2cc(F)ccc12 [3-016]
herbicidal effect rating, A: late watergrass (late watergrass; AAH 320 g/ha): 3 (Herbicidal rate of 40% or more and less than 70%)
herbicidal effect rating, B: Japanese bulrush (Japanese bulrush; AAH 320 g/ha): 0 (Herbicidal rate of 5% or less (almost no effect))
herbicidal effect rating, C: oval-leafed pondweed (oval-leafed pondweed; AAH 320 g/ha): 0 (Herbicidal rate of 5% or less (almost no effect))
herbicidal effect on H: barnyard grass (barnyard grass [1]; [4]): 3 (Herbicidal rate of 40% or more and less than 70%)
herbicidal effect on D: Chinese sprangletop (Chinese sprangletop; [4]): 4 (Herbicidal rate of 70% or more and less than 90%)
herbicidal effect on E: rice flat sedge (rice flat sedge; [4]): 4 (Herbicidal rate of 70% or more and less than 90%)
F: southern crabgrass, herbicidal effect grade (southern crabgrass; 320 g/ha): 0 (Herbicidal rate of 5% or less (almost no effect))
G: green foxtail, herbicidal effect grade (green foxtail; 320 g/ha): 0 (Herbicidal rate of 5% or less (almost no effect))
H: barnyard grass, herbicidal effect grade (barnyard grass [2]; 320 g/ha): 0 (Herbicidal rate of 5% or less (almost no effect))
I: wild oat, herbicidal effect grade (wild oat; 320 g/ha): 1 (Herbicidal rate of 5% or more and less than 20%)
J: blackgrass, herbicidal effect grade (blackgrass; 320 g/ha): 0 (Herbicidal rate of 5% or less (almost no effect))
K: Italian ryegrass, herbicidal effect grade (Italian ryegrass; 320 g/ha): 0 (Herbicidal rate of 5% or less (almost no effect))
L: windgrass, herbicidal effect grade (windgrass; 320 g/ha): 5 (Herbicidal rate of 90% or more (almost completely withered))
M: velvetleaf, herbicidal effect grade (velvetleaf; 320 g/ha): 3 (Herbicidal rate of 40% or more and less than 70%)
N: redroot pigweed, herbicidal effect grade (redroot pigweed; 320 g/ha): 1 (Herbicidal rate of 5% or more and less than 20%)
O: lambsquarters, herbicidal effect grade (lambsquarters; 320 g/ha): 3 (Herbicidal rate of 40% or more and less than 70%)
P: chickweed, herbicidal effect grade (chickweed; 320 g/ha): 3 (Herbicidal rate of 40% or more and less than 70%)
R: persian speedwell, herbicidal effect grade (persian speedwell; 320 g/ha): 4 (Herbicidal rate of 70% or more and less than 90%)

CCCC(=O)Oc1c(C)nn(C)c(=O)c1-c1c(-c2ccc(C(F)(F)F)cc2F)sc2c(Cl)cccc12 [4-038]
herbicidal effect rating, A: late watergrass (late watergrass; AAH 320 g/ha): 2 (Herbicidal rate of 20% or more and less than 40%)
herbicidal effect rating, B: Japanese bulrush (Japanese bulrush; AAH 320 g/ha): 3 (Herbicidal rate of 40% or more and less than 70%)
herbicidal effect rating, C: oval-leafed pondweed (oval-leafed pondweed; AAH 320 g/ha): 0 (Herbicidal rate of 5% or less (almost no effect))
herbicidal effect on barnyard grass (H) (barnyard grass [1]; 320 g/ha): 4 (Herbicidal rate of 70% or more and less than 90%)
herbicidal effect on Chinese sprangletop (D) (Chinese sprangletop; 320 g/ha): 5 (Herbicidal rate of 90% or more (almost completely withered))
herbicidal effect on rice flat sedge (E) (rice flat sedge; 320 g/ha): 4 (Herbicidal rate of 70% or more and less than 90%)
herbicidal effect on F: southern crabgrass (evaluation grade 0-5) (southern crabgrass; [5]): 0 (Herbicidal rate of 5% or less (almost no effect))
herbicidal effect on G: green foxtail (evaluation grade 0-5) (green foxtail; [5]): 0 (Herbicidal rate of 5% or less (almost no effect))
herbicidal effect on H: barnyard grass (evaluation grade 0-5) (barnyard grass [2]; [5]): 0 (Herbicidal rate of 5% or less (almost no effect))
herbicidal effect on I: wild oat (evaluation grade 0-5) (wild oat; [5]): 2 (Herbicidal rate of 20% or more and less than 40%)
herbicidal effect on J: blackgrass (evaluation grade 0-5) (blackgrass; [5]): 0 (Herbicidal rate of 5% or less (almost no effect))
herbicidal effect on K: Italian ryegrass (evaluation grade 0-5) (Italian ryegrass; [5]): 4 (Herbicidal rate of 70% or more and less than 90%)
herbicidal effect on L: windgrass (evaluation grade 0-5) (windgrass; [5]): 5 (Herbicidal rate of 90% or more (almost completely withered))
herbicidal effect on M: velvetleaf (evaluation grade 0-5) (velvetleaf; [5]): 0 (Herbicidal rate of 5% or less (almost no effect))
herbicidal effect on N: redroot pigweed (evaluation grade 0-5) (redroot pigweed; [5]): 0 (Herbicidal rate of 5% or less (almost no effect))
herbicidal effect on O: lambsquarters (evaluation grade 0-5) (lambsquarters; [5]): 0 (Herbicidal rate of 5% or less (almost no effect))
herbicidal effect on P: chickweed (evaluation grade 0-5) (chickweed; [5]): 4 (Herbicidal rate of 70% or more and less than 90%)
herbicidal effect on R: persian speedwell (evaluation grade 0-5) (persian speedwell; [5]): 4 (Herbicidal rate of 70% or more and less than 90%)
